Measurements as given in patent US9079895B2, “Morpholino compounds, uses and methods” (University of Dundee, priority 2012, dated 2015).

How the values were obtained:
dopamine D4 receptor = dopamine D4 receptor (Homo sapiens (Human), UniProt P21917); test: Functional assay against the dopamine D4 receptor; type: cell-based; conditions: data not shown
Text: (§1) The detailed experimental protocols for the radioligand and functional receptor assays are available on the NIMH PDSP website at http://pdsp.med.unc.edu/UNC-CH %20Protocol %20Book.pdf.

hERG = hERG (Homo sapiens (Human), UniProt Q12809); test: hERG assay (PatchXpress patch clamp); type: cell-based
Experimental: 2. hERG Assay hERG activity was assayed by the patch clamp method on a PatchXpress platform and by FluxOR T1+ assays.

dopamine D2 receptor = dopamine D2 receptor (Homo sapiens (Human), UniProt P14416); test: Functional assay against the dopamine D2 receptor; type: cell-based; conditions: data not shown
Text: as §1

[1] = Metabolic stability assay (in vitro), mouse hepatic microsomes; type: in vitro ADME; conditions: mouse liver microsomes, 0.5 μM test compound
Experimental: 3. Metabolic Stability Assay (In Vitro)
Metabolic stability was assessed, generating the in vitro intrinsic clearance (Cli) following incubation of test compound with mouse hepatic microsomes. The assay was performed as previously described (Ruda et al. (2010), “Aryl Phosphoramidates of 5-phosho erythronohydroxamic acid, a new class of potent trypanocidal agents”, J. Med. Chem. 53, pp 6071-6078).
Briefly, each test compound (0.5 μM) was incubated with pooled female mouse liver microsomes (Tebu-Bio, UK; 0.5 mg/ml 50 mM potassium phosphate buffer, pH7.4) and the reaction started with addition of excess NADPH (8 mg/ml 50 mM potassium phosphate buffer, pH7.4) Immediately, at time zero, then at 3, 6, 9, 15 and 30 minutes an aliquot (50 μl) of the incubation mixture was removed and mixed with acetonitrile (100 μl) to stop the reaction. Internal standard was added to all samples. […]
XLfit (IDBS, UK) was used to calculate the exponential decay and consequently the rate constant (k) from the ratio of peak area of test compound to internal standard at each timepoint. The rate of intrinsic clearance (CLi) of each compound was then calculated using the following equation (1): CLi(ml/min/g liver)=k×V×Microsomal protein yield (1) where V (ml/mg protein) is the incubation volume/mg protein added and microsomal protein yield is taken as 52.5 mg protein/g liver. […]

Chain of hERG (Q12809 whole entry): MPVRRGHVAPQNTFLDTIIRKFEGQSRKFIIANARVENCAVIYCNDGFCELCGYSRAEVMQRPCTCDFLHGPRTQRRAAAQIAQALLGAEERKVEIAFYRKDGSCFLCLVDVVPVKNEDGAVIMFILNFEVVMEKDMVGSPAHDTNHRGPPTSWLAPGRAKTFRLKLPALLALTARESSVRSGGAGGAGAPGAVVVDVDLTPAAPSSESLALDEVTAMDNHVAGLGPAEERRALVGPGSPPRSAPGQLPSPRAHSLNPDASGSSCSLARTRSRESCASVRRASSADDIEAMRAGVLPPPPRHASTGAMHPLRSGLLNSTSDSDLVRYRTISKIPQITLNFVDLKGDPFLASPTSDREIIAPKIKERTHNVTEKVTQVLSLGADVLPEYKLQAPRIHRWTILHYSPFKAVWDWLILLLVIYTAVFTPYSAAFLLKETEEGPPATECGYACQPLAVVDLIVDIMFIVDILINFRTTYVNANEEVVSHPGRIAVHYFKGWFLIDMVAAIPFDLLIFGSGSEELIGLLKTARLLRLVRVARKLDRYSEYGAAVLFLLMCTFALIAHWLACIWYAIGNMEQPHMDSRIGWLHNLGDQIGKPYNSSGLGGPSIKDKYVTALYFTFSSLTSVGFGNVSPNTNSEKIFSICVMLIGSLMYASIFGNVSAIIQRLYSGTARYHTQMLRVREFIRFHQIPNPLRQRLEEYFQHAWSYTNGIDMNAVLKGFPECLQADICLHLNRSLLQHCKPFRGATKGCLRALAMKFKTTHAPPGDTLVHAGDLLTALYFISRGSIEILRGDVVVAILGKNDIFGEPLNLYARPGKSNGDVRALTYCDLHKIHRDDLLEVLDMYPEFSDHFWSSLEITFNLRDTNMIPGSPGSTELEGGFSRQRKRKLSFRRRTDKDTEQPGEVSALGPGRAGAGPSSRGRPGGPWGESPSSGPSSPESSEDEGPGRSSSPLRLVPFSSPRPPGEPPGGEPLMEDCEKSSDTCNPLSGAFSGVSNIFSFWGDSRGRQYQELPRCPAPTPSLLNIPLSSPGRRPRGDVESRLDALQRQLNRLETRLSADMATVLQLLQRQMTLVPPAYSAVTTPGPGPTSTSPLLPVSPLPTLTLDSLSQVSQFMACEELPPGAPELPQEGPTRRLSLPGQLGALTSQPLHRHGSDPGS
Chain of dopamine D2 receptor (P14416 whole entry, species assumed): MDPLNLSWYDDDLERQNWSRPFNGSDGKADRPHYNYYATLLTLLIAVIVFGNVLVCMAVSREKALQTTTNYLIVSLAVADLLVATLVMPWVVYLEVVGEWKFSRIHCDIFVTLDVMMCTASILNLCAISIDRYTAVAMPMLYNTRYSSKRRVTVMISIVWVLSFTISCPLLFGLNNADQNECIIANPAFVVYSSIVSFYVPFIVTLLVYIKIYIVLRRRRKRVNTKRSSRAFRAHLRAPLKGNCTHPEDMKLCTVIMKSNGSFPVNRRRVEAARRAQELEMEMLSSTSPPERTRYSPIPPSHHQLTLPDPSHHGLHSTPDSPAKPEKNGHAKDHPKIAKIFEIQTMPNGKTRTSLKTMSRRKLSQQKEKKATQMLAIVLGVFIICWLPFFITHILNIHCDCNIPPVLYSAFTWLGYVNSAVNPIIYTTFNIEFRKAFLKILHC
Chain of dopamine D4 receptor (P21917 whole entry, species assumed): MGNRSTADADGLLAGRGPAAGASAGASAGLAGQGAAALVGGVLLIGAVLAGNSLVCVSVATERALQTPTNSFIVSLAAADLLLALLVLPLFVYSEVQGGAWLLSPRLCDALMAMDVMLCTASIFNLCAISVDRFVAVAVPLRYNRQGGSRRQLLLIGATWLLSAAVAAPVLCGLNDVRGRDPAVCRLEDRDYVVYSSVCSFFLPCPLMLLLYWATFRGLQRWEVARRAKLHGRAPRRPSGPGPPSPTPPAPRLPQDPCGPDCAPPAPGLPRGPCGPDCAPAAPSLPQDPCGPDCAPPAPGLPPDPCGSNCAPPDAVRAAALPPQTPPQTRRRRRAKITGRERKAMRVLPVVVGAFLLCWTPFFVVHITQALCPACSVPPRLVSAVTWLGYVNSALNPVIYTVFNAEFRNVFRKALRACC

| Structure (SMILES) | function at the dopamine D4 receptor (dopamine D4 receptor) | EC50 (hERG; read-out: hERG inhibition pEC50 (converted)) | function at the dopamine D2 receptor (dopamine D2 receptor) | hERG inhibition pEC50 (hERG) | mouse hepatic microsomal Cli (intrinsic clearance) [1] |
| --- | --- | --- | --- | --- | --- |
| c1cncc(OC[C@@H]2CN(CCN3CCc4ccccc43)CCO2)c1 [Compound 21s, (S)-4-(2-(Indolin-1-yl)ethyl)-2-((pyridin-3-yloxy)methyl)morpholine] | inverse agonists | 1.51 µM | inverse agonists | – | – |
| O=C(CN1CCO[C@@H](COc2cccc(Cl)c2)C1)N1CCc2ccccc21 [Compound 22r, (R)-2-(2-((3-chlorophenoxy)methyl)morpholino)-1-(indolin-1-yl)ethanone] | inverse agonists | – | inverse agonists | – | – |
| Clc1cncc(OC[C@@H]2CN(CCN3CCc4ccccc43)CCO2)c1 [Compound 27s, (S)-2-(((5-Chloropyridin-3-yl)oxy)methyl)-4-(2-(indolin-1-yl)ethyl)morpholine] | – | – | – | 5.51+/−0.13 | 25 mL/min/g |
